Results reported in article PMC9652956, “The ovipositor cue indole inhibits animal host attraction in Aedes aegypti (Diptera: Culicidae) mosquitoes” (Parasites & Vectors, 2022).

Legend:
[1] = molecular target: T1, AaegOR8 (Aedes aegypti (R)-1-octen-3-ol receptor OR8) (Aedes aegypti, UniProt Q16MN0); assay: two-electrode voltage clamp, Xenopus oocytes; baseline current shift under […] perfusion versus water-injected oocytes; assay type: cell-based
T1 construct: gene GPRor8; with AaegOrco
T1 sequence (Q16MN0 1-422): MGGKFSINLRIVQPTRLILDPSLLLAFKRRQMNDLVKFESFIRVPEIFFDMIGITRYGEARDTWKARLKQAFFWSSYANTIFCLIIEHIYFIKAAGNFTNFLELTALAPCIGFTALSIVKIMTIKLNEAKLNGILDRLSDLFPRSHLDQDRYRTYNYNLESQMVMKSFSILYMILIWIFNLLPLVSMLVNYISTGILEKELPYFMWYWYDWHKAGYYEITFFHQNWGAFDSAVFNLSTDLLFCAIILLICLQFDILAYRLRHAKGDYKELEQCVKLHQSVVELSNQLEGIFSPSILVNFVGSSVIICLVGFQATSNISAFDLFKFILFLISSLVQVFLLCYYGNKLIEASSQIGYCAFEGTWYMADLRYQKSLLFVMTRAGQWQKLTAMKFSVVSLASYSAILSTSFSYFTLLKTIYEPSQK
T1 sequence (Q178U6 1-478 partner): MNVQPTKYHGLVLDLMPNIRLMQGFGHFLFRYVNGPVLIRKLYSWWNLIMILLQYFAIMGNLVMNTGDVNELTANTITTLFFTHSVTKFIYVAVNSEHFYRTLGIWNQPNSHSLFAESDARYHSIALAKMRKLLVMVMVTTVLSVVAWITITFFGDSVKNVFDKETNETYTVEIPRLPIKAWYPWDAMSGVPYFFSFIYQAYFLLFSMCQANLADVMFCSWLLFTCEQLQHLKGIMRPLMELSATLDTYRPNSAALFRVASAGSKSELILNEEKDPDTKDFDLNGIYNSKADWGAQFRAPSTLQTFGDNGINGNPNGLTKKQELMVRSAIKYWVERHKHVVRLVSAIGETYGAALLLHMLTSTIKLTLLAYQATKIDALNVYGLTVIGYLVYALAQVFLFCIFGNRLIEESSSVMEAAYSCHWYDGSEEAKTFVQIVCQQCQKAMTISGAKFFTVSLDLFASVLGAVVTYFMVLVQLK

[2] = molecular target: T1, AaegOR8 (Aedes aegypti (R)-1-octen-3-ol receptor OR8); assay: two-electrode voltage clamp, Xenopus oocytes expressing AaegOR8-Orco; about […] inhibition at […]; not active on Orco alone; assay type: cell-based; details: read-out: % reduction at 10^-3 M

Compound	two-electrode voltage clamp, Xenopus oocytes; baseline current shift under 0.01 [1]	inhibition at 1000 µM [2] [%]
CCN(CC)C(=O)c1cccc(C)c1 [DEET]	Indole and insect repellents (DEET, IR3535) increased the baseline current state of AaegOR8-Orco-injected oocytes	
c1ccc2[nH]ccc2c1 [indole]		~30
CCCCN(CCC(=O)OCC)C(C)=O [IR3535]	Indole and insect repellents (DEET, IR3535) increased the baseline current state of AaegOR8-Orco-injected oocytes	
